Data from US6103709A (priority 1998, dated 2000).
Entries after “also recorded” stand apart in the source; their conditions may differ.

Experiments:
[1] = system: vitamin D-deficient chick; experiment: Intestinal Ca2+ absorption (ICA) in vitamin D-deficient chick; assay type: in vivo; conditions: i.m.
Description: A primary fundamental physiological property of vitamin D and particularly 1α,25(OH)2 D3 is its ability to stimulate the intestinal absorption of calcium and facilitate the availability of dietary calcium to the organism. Intestinal absorption of the calcium is measured by the intestinal calcium absorption (ICA) assay, developed in the model of vitamin-D deficient chicks. The ICA assay was used to determine the relative capability of the tested analog to stimulate intestinal Ca^2+ absorption.
(§1) Results of the testing of the analogs of the invention in vivo by the ICA and IBM assays are shown in FIG. 9 which illustrates the capability of analogs LO, EV and HR to stimulate intestinal Ca^2+ absorption (ICA) and bone Ca^2+ mobilizing activity (BCM). In this study, the analogs of 1α,25(OH) were given i.m. to vitamin D-deficient chicks 12 hours before the assay began. The activity produced by 100 pmol of 1α,25(OH)2 D3 was set to be 100% for both ICA and BCM. The dose of the analogs required to achieve a biological response for either ICA or BCM equivalent to the 100 pmol dose of 1α,25(OH)2 D3 was calculated and converted to a percentage. Results are expressed as mean +SE of groups of seven chicks. Each assay included a negative control (-D), that is no vitamin D was present, and a positive control, where vitamin D3 (+D3) was present in 3.25 nmol. […] 1α,25(OH)2 D3 and analogs LO [14α,15α-methano-1α,25(OH)2 D3 ], EV [22-(m(dimethylhydroxymethyl)phenyl)-23,24,25,26,27-pentanor-1α-OH-D3 ] and HR [(22R)-1,25(OH)2 -22,23-diene-D3 ] were administered in 0.0065, 0.065, 0.65 and 6.5 nmol as shown.
(§2) In Vivo Assays of Intestinal Calcium Absorption and Bone Calcium Mobilization
(§3) This example describes assays used for determination of analogs biological activity in intestinal calcium absorption (ICA) and bone calcium mobilization (BCM) assays.
(§4) ICA and BCM were measured in vivo in the vitamin D-deficient chick model system according to Biochem. Pharmacol., 18: 2347 (1969).
(§5) Twelve hours before assay, the chickens, which had been placed on a zero-calcium diet 48 h before assay, were injected intramuscularly with the vitamin metabolite 1α,25(OH)2 D3 or analog (1-10,000 pmoles) dissolved in 0.1 mL of ethanol/1,2-propanediol (1:1, v/v). At the time of assay, 4.0 mg of ^40 Ca^2+ +5 μCi of ^45 Ca^2+ (New England Nuclear) were placed in the duodenum of the birds lightly anesthetized with ether. After 30 min, the birds were decapitated and the blood was collected.
The radioactivity content, which is a measure of ICA, of 0.2 mL of serum was measured in a liquid scintillation counter (Beckman LS8000) to determine the amount of ^45 Ca^2+ absorbed.

rapid responses (VDRmem) = experiment: Antagonist function (summary classification); conditions: Yes/No, Tables 1 and 6
Description: (§6) Table 6 identifies biological properties, such as genomic response, rapid response, agonist or antagonist function, binding of the analog to the vitamin binding protein (expressed as RCI), binding to the nuclear 1α,25(OH)2 D3 receptor (expressed as RCI) rapid response (expressed as % transcaltachia the rapid hormonal stimulation of intestinal calcium absorption) the classic vitamin D responses such as intestinal Ca^2+ absorption (ICA) and bone Ca^2+ mobilizing activity (BCM) determined in vivo in a vitamin D-deficient chick, and cell differentiation (expressed as % ED50), an assessment of the ability to promote the nuclear response of cell differentiation.

VDRmem = experiment: Rapid response (summary classification); conditions: Yes/No, Tables 1 and 6
Description: as §6

keratinocytes = conditions: cell cultures of keratinocytes; cited from earlier work
[2] = system: vitamin D-deficient chick; experiment: Bone Ca2+ mobilizing activity (BCM) in vitamin D-deficient chick; assay type: in vivo; conditions: i.m.
Description: The bone calcium mobilizing (BCM) assay is also conducted in the vitamin D-deficient chick. The BCM assay determines the relative ability of the tested analog to mobilize bone calcium. The natural hormone 1α,25(OH)2 D3 is very potent in the BCM assay. For example, when 1α,25(OH)2 D3 in inappropriate amounts are used as a drug in human patients, the patient may become hypercalcemic and eventually hypercalciuria with nephrolithiasis and renal failure may develop. The BCM assay was used to determine the relative activity of the analogs of the invention to stimulate bone Ca^2+ mobilization.
as §1, §2, §3, §4, §5
BCM activity was estimated from the increase of total serum calcium concentration, as determined by atomic absorption spectrophotometry.

VDRnuc = experiment: Genomic response (summary classification); conditions: Yes/No, Tables 1 and 6
Description: as §6

[3] = system: MAP-kinase p42^mapk in NB4 cells; experiment: MAP-kinase activation (p42mapk phosphorylation) in NB4 cells; assay type: cell-based, human; conditions: 1 or 5 minutes exposure
Description: In order to determine whether MAP-kinase phosphorylation is specific and is altered by 1α,25(OH)2 D3, the time-dependent effects of 1α,25(OH)2 D3 on p42^mapk phosphorylation was examined using human acute promyelocytic leukemia cells (NB4). In this study, the NB4 cells, cultured in 10% charcoal-stripped fetal calf serum (FCS) medium, were treated with 1α,25(OH)2 D3 at 10^-8 M for various time periods. Cells were then extracted and the phosphorylated MAP-kinase was immunoprecipitated with anti-phosphotyrosine antibody and further analyzed by Western blot using the antibodies against p42^mapk.
The lysate was further processed for anti-phosphotyrosine immunoprecipitation. […] After transferring the proteins to the PVDF membrane, the membrane was further incubated with primary anti-p42^mapk antibodies that were (+) or were not (-) pre-exposed to MAP-kinase peptide.
This example describes assays used for measurement of MAP-kinase activity in NB4 cells.
Cell culture of NB4 cells
The cell line is characterized by a translocation involving chromosomes 15 and 17, which is typical of the classical form of APL-M3 in the French-American-British [FAB] classification. NB4 cells were cultured in DMEM/F12 medium with 10% FCS at 5% CO2 balanced air and were routinely passaged as suspension cultures and only passages 8 to 20 were used for each assay.
Immunoprecipitation of Tyrosine-Phosphorylated Proteins
NB4 cells were cultured in 60-mm diameter dishes and treated with 1,25(OH)2 D3 or analogs in 4 ml of DMEM/F12 containing 10% charcoal-stripped FCS.
Insoluble material was removed in a microcentrifuge at 14,000 rpm for 10 min. Protein concentration was determined with a protein assay kit (Bio-Rad Lab, Hercules, Calif.). For immunoprecipitation, the supernatant was incubated with bead-conjugated monoclonal anti-phosphotyrosine antibody overnight at 4° C. The immunoprecipitates containing the tyrosine-phosphorylated proteins were washed four times with freshly-prepared RIPA buffer and further eluted with 2× Laemmli gel buffer.
At this point, the samples were either stored at -20° C. for further use or processed via Western blots. Equal loading of MAP-kinase protein was determined by running the Western blots using polyclonal anti-p42^mapk antibody. For this purpose, samples were aliquoted from each cell extract before immunoprecipitation.
SDS Gel Electrophoresis and Western blot
The membrane was further immunoblotted using a rabbit anti-p42^mapk polyclonal antibody overnight at 4° C. followed by incubation with secondary horseradish peroxidase-conjugated mouse anti-rabbit antibody for 1 hr at 25° C. The phosphorylated MAP-kinase bands were then visualized by enhanced chemiluminescence (ECL). A Ultrascan LX Laser Densitometer (LKB, Bromma, Sweden) scanned the density of the immuno-phosphoprotein bands. The results were normalized by protein loading and further plotted as percent of control of the band density.

[4] = system: chloride channels in ROS 17/2.8 cells
Description: In each case, at least a 3-min period was allowed after the addition of the analog to the bath for currents to reach a stable amplitude value. […] Anion currents were isolated from inward Ba^2+ currents after blockade of Ca^2+ channels with 100 μM Cd^2+.

[5] = relative to 100 pmol 1α,25(OH)2 D3 = 100%, 12 h before assay

In the case of `C=C1/C(=C\C=C2/CCC[C@]3(C)[C@@H]([C@H](C)CCCC(C)(C)O)CC[C@@H]23)C[C@@H](O)C[C@@H]1O` [Analog C, 1α,25-dihydroxyvitamin D3, reference compound], the “Classic Vit D Responses ICA” value [1, 5] is reported as 100%, the “ICA (in words)” value ([1]; vitamin D-deficient chick) is reported as “most potent stimulator of ICA and BCM” and the Antagonist (rapid responses (VDRmem)) is reported as “No”. The “Rapid Response” value (VDRmem) was “Yes”, the “production of keratin, involucrin and loricrin” value (keratinocytes) was “stimulate the production of keratin, involucrin and loricrin” and the “Classic Vit D Responses BCM” value [2, 5] was 100%. For the same compound, the “BCM (in words)” value ([2]; vitamin D-deficient chick) was “most potent stimulator of ICA and BCM”, the “Genomic Response” value (VDRnuc) was “Yes” and the “phosphorylation / activation of MAP-kinase p42mapk (in words)” value [3] was “significantly increased phosphorylation of p42^mapk in NB4 cells”. For the same compound, the “opening of chloride channels (in words)” value ([4]; 0.05-50 nM, alone, listed as 1α,25(OH)2 D3) was “concentration-dependent effect on the promotion of anion currents; also recorded: agonist which opens chloride channels” and the “cells responding with promotion of anion currents” value ([4]; 1α,25(OH)2 D3 alone, 14 out of 15 cells) was 93%.
